According to the supplement of paper PMC6045584:
± gives the standard deviation of the averaged measurements.

Key:
[1] = compound: CC[C@@H]1C(=O)N(C)c2cnc(Nc3ccc(C(=O)NC4CCN(C)CC4)cc3OC)nc2N1C1CCCC1 [BI-2536]; assay: surviving fraction relative to DMSO-only wells; higher = less growth inhibition; settings: exposure time: 5 days
How it was run: (§1)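 Each tumour cell line was screened three times, and only lines with replicate Pearson r >0.7 and median Z' >0.3 were kept. Cells in log phase were seeded at 250–500 per well in 384-well plates, left 24 hours, then exposed continuously for five days to inhibitors at 0.5, 1, 5, 10, 50, 100, 500 and 1000 nM. Viability was read as CellTiter-Glo luminescence, with surviving fraction normalised to the median of DMSO-only wells.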

[2] = compound: Nc1nc2[nH]cnc2c(=S)[nH]1 [TIOGUANINE]; assay: as above; settings: exposure time: 5 days
How it was run: as §1

Test System	surviving fraction ([1]; 0.5 nM)	surviving fraction ([1]; 1 nM)	surviving fraction ([1]; 5 nM)	surviving fraction ([1]; 10 nM)	surviving fraction ([1]; 50 nM)	surviving fraction ([1]; 100 nM)	surviving fraction ([1]; 500 nM)	surviving fraction ([1]; 1000 nM)	surviving fraction ([2]; 0.5 nM)	surviving fraction ([2]; 1 nM)	surviving fraction ([2]; 5 nM)	surviving fraction ([2]; 10 nM)	surviving fraction ([2]; 50 nM)	surviving fraction ([2]; 100 nM)	surviving fraction ([2]; 500 nM)	surviving fraction ([2]; 1000 nM)
SCC90 HEADNECK	0.939 ± 0.12	0.461 ± 0.057	0.075 ± 0.0044	0.0887 ± 0.0087	0.148 ± 0.007	0.198 ± 0.022	0.217 ± 0.036	0.138 ± 0.011	0.874 ± 0.047	0.873 ± 0.057	1.16 ± 0.12	1.09 ± 0.12	1.03 ± 0.17	1.08 ± 0.15	0.86 ± 0.045	0.743 ± 0.099
S68 BREAST	0.884 ± 0.16	0.839 ± 0.12	0.343 ± 0.067	0.271 ± 0.039	0.166 ± 0.013	0.116 ± 0.04	0.0923 ± 0.022	0.067 ± 0.015	1.2 ± 0.1	0.975 ± 0.046	0.981 ± 0.04	0.941 ± 0.11	1.1 ± 0.18	1.04 ± 0.097	1.05 ± 0.14	1.04 ± 0.27
C33A CERVIX	1.12 ± 0.021	1.13 ± 0.085	0.266 ± 0.052	0.073 ± 0.011	0.0473 ± 0.0068	0.036 ± 0.007	0.0303 ± 0.01	0.032 ± 0.015	0.807 ± 0.079	0.711 ± 0.052	0.9503 ± 0.0032	0.91 ± 0.048	1.03 ± 0.092	1.02 ± 0.023	0.707 ± 0.043	0.648 ± 0.061
MDAMB231 BREAST	0.975 ± 0.02	0.954 ± 0.01	0.425 ± 0.015	0.385 ± 0.011	0.39 ± 0.011	0.391 ± 0.0073	0.338 ± 0.013	0.245 ± 0.0063	0.988 ± 0.027	0.994 ± 0.021	1.01 ± 0.027	0.994 ± 0.028	1.01 ± 0.035	1.01 ± 0.035	0.74 ± 0.039	0.573 ± 0.016
ASKA SYNOVIAL	0.962 ± 0.057	0.919 ± 0.066	0.228 ± 0.012	0.231 ± 0.0032	0.256 ± 0.012	0.219 ± 0.012	0.185 ± 0.0081	0.238 ± 0.011	1.07 ± 0.051	1.09 ± 0.058	1.13 ± 0.08	1.08 ± 0.032	1.1 ± 0.068	1.073 ± 0.007	1.07 ± 0.044	1.03 ± 0.011
DU4475 BREAST	0.997 ± 0.25	1.04 ± 0.051	0.536 ± 0.15	0.233 ± 0.047	0.0763 ± 0.027	0.057 ± 0.015	0.031 ± 0.0053	0.027 ± 0.002	0.746 ± 0.054	1 ± 0.31	0.784 ± 0.2	0.798 ± 0.17	0.687 ± 0.23	0.743 ± 0.24	0.721 ± 0.4	0.704 ± 0.29
NY BONE	0.988 ± 0.025	0.851 ± 0.01	0.051 ± 0.0035	0.0633 ± 0.0051	0.17 ± 0.023	0.305 ± 0.0079	0.372 ± 0.0087	0.298 ± 0.03	0.936 ± 0.013	0.955 ± 0.017	1.01 ± 0.022	0.972 ± 0.015	1.02 ± 0.049	1.01 ± 0.029	0.946 ± 0.025	0.902 ± 0.039
HOSMNG BONE	1.03 ± 0.017	0.955 ± 0.11	0.918 ± 0.055	0.268 ± 0.033	0.047 ± 0.0036	0.046 ± 0.013	0.0673 ± 0.0061	0.0843 ± 0.013	0.991 ± 0.03	1.01 ± 0.029	0.988 ± 0.068	0.989 ± 0.016	1.05 ± 0.047	1.02 ± 0.089	1.04 ± 0.037	0.983 ± 0.028
HCC202 BREAST	0.938 ± 0.18	0.952 ± 0.097	0.421 ± 0.034	0.345 ± 0.037	0.538 ± 0.033	0.502 ± 0.12	0.379 ± 0.044	0.306 ± 0.062	1.28 ± 0.11	1.25 ± 0.14	1.32 ± 0.35	1.3 ± 0.28	1.32 ± 0.14	1.78 ± 0.35	1.2 ± 0.19	1.24 ± 0.067
T47D BREAST	0.981 ± 0.018	0.871 ± 0.016	0.551 ± 0.017	0.488 ± 0.01	0.374 ± 0.019	0.53 ± 0.035	0.2606 ± 0.0011	0.276 ± 0.011	1.03 ± 0.025	0.984 ± 0.038	0.964 ± 0.016	0.998 ± 0.029	1.08 ± 0.045	1.06 ± 0.072	1.03 ± 0.061	0.978 ± 0.011
SG32 HEADNECK	1.22 ± 0.12	1.07 ± 0.18	0.32 ± 0.017	0.296 ± 0.022	0.292 ± 0.0097	0.294 ± 0.043	0.204 ± 0.014	0.16 ± 0.02	0.916 ± 0.077	1.04 ± 0.044	1.18 ± 0.22	1.2 ± 0.074	1.2 ± 0.15	0.881 ± 0.05	0.962 ± 0.22	1.17 ± 0.057
HS578T BREAST	0.828 ± 0.093	0.73 ± 0.075	0.253 ± 0.013	0.196 ± 0.02	0.131 ± 0.015	0.132 ± 0.025	0.144 ± 0.0045	0.135 ± 0.012	0.998 ± 0.085	0.872 ± 0.14	0.944 ± 0.082	0.959 ± 0.075	0.923 ± 0.12	0.985 ± 0.12	1.01 ± 0.068	0.897 ± 0.17
A549 LUNG	1.02 ± 0.056	1 ± 0.034	0.48 ± 0.016	0.28 ± 0.0067	0.133 ± 0.0046	0.0943 ± 0.0074	0.0457 ± 0.0071	0.039 ± 0.003	0.946 ± 0.045	0.955 ± 0.025	0.96 ± 0.046	0.952 ± 0.051	0.976 ± 0.045	0.999 ± 0.064	1.01 ± 0.038	0.973 ± 0.056
SUM159 BREAST	0.968 ± 0.2	0.967 ± 0.19	0.953 ± 0.18	0.864 ± 0.17	0.194 ± 0.035	0.167 ± 0.077	0.131 ± 0.057	0.134 ± 0.05	1.07 ± 0.14	1.02 ± 0.025	1.02 ± 0.041	1.03 ± 0.069	1.04 ± 0.075	0.97 ± 0.077	1.05 ± 0.084	1.008 ± 0.006
RDES SOFT TISSUE	1.05 ± 0.086	1.11 ± 0.12	0.603 ± 0.18	0.0407 ± 0.0038	0.034 ± 0.0036	0.024 ± 0.001	0.0287 ± 0.0015	0.0297 ± 0.0035	1.19 ± 0.17	1.42 ± 0.042	1.33 ± 0.06	1.35 ± 0.13	1.25 ± 0.17	1.19 ± 0.12	1.07 ± 0.012	1.28 ± 0.15
143B BONE	1.01 ± 0.023	0.954 ± 0.0071	0.117 ± 0.013	0.0745 ± 0.005	0.082 ± 0.0042	0.114 ± 0.013	0.254 ± 0.0014	0.235 ± 0.025	0.986 ± 0.015	1.01 ± 0.018	0.993 ± 0.025	0.999 ± 0.0071	0.9995 ± 0.0092	1.01 ± 0.028	0.904 ± 0.0014	0.707 ± 0.041
